Data published in patent US20250154138A1, “Small Molecule IL-17A Modulators” (BeiGene, Ltd., priority 2022, published 2025).
pIC50: −log10 of the molar value. Like-named read-outs stand apart in the source and are kept apart here.

What was measured:
[1] = test system: IL-17-induced GROα secretion from HT-29 cells; assay: GROα release assay in human colorectal adenocarcinoma epithelial cell (HT-29, ELISA); format: cell-based; conditions: 10 ng/mL IL-17A, highest concentration 10 μM, read-out: Cellular assay HT29 cell/CXCL1 IC50
Summary of the method: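 IC50 values come from four-parameter fits of GROα levels, quantified by ELISA (450 nm, standard curve) in supernatants. Compounds, 4-fold serially diluted from 10 μM, were mixed 15 min with IL-17A (10 ng/mL final) before 48 h incubation with HT-29 cells at 37°C.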

[2] = target: human IL-17A / human IL-17RA (Homo sapiens (Human), UniProt Q16552); assay: Human IL-17A biochemical assay (HTRF, blocking of IL-17A binding to IL-17RA); conditions: 0.4 nM IL-17A, 0.3 nM IL-17RA, max compound concentration 10 uM
Summary of the method: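 Steps: compound dilutions (max 10 uM, 10 points) pre-incubate with 0.4 nM IL-17A for 3 h at RT; 0.3 nM IL-17RA added for 1 h; HTRF antibody pair added for 1 h; fluorescence ratio read and percent inhibition fitted to a four-parameter logistic for IC50.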

Chain of human IL-17A / human IL-17RA (Q16552 24-155): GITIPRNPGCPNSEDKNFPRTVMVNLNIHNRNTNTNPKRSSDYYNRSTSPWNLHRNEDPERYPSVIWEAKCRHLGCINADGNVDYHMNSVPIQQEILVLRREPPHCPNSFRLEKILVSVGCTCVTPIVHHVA

Compound | pIC50 ([1]; Homo sapiens, HT-29, 48 h) | pIC50 [2] | pIC50 ([1]; 48 hours)
CC(C)[C@@H]1CC(C2Cc3ccc(NC(=O)[C@@H](NC(=O)c4ccnn4C)C4CCCCC4)cc3C2)C(=O)N1 (stereo partly drawn) [Example 209, N-((1S)-1-cyclohexyl-2-((2-((5S)-5-isopropyl-2-oxopyrrolidin-3-yl)-2,3-dihydro-1H-inden-5-yl)amino)-2-oxoethyl)-1-methyl-1H-pyrazole-5-carboxamide] | 5.66 | 5.97 | –
Cc1nonc1C(=O)N[C@H](C(=O)Nc1ccc2c(c1)CC(C#N)(N1CC3(CC3)CNC1=O)C2)C1CCC(F)(F)CC1 (stereo partly drawn) [Example 210, N-((1S)-2-((2-cyano-2-(6-oxo-5,7-diazaspiro[2.5]octan-5-yl)-2,3-dihydro-1H-inden-5-yl)amino)-1-(4,4-difluorocyclohexyl)-2-oxoethyl)-4-methyl-1,2,5-oxadiazole-3-carboxamide] | 6.53 | 7.04 | –
Cc1nonc1C(=O)N[C@H](C(=O)Nc1ccc2c(c1)CC(C1C[C@@H](C(C)C)NC1=O)C2)C(C1CC1)C1CC1 (stereo partly drawn) [Example 211, N-((2S)-1,1-dicyclopropyl-3-((2-((5S)-5-isopropyl-2-oxopyrrolidin-3-yl)-2,3-dihydro-1H-inden-5-yl)amino)-3-oxopropan-2-yl)-4-methyl-1,2,5-oxadiazole-3-carboxamide] | – | 6.33 | 5.43
Cc1nonc1C(=O)N[C@H](C(=O)Nc1ccc2c(c1)CC(C(C)C)(N1CC(C(F)(F)F)NC1=O)C2)C(C1CC1)C1CC1 (stereo partly drawn) [Example 212, N-((2S)-1,1-dicyclopropyl-3-((2-isopropyl-2-(2-oxo-4-(trifluoromethyl)imidazolidin-1-yl)-2,3-dihydro-1H-inden-5-yl)amino)-3-oxopropan-2-yl)-4-methyl-1,2,5-oxadiazole-3-carboxamide] | 5.99 | 6.16 | –
Cc1nonc1C(=O)N[C@H](C(=O)Nc1ccc2c(c1)CC(N1C[C@@H](C(F)(F)F)NC1=O)C2)C1CCCCC1 (stereo partly drawn) [Example 213, N-((1S)-1-cyclohexyl-2-oxo-2-((2-((S)-2-oxo-4-(trifluoromethyl)imidazolidin-1-yl)-2,3-dihydro-1H-inden-5-yl)amino)ethyl)-4-methyl-1,2,5-oxadiazole-3-carboxamide] | 5.35 | 5.75 | –
Cc1ccccc1NC(=O)C1(N2CC3(CC3)CNC2=O)Cc2ccc(NC(=O)[C@@H](NC(=O)c3nonc3C)C3CCC(F)(F)CC3)cc2C1 (stereo partly drawn) [Example 214, N-((1S)-1-(4,4-difluorocyclohexyl)-2-oxo-2-((2-(6-oxo-5,7-diazaspiro[2.5]octan-5-yl)-2-(o-tolylcarbamoyl)-2,3-dihydro-1H-inden-5-yl)amino)ethyl)-4-methyl-1,2,5-oxadiazole-3-carboxamide] | 6.99 | 7.43 | –
Cc1nonc1C(=O)N[C@H](C(=O)Nc1ccc2c(c1)CC(C(=O)Nc1cncs1)(N1CC3(CC3)CNC1=O)C2)C1CCC(F)(F)CC1 (stereo partly drawn) [Example 215, N-((1S)-1-(4,4-difluorocyclohexyl)-2-oxo-2-((2-(6-oxo-5,7-diazaspiro[2.5]octan-5-yl)-2-(thiazol-5-ylcarbamoyl)-2,3-dihydro-1H-inden-5-yl)amino)ethyl)-4-methyl-1,2,5-oxadiazole-3-carboxamide] | 6.87 | 7.47 | –
Cc1nonc1C(=O)N[C@H](C(=O)Nc1ccc2c(c1)CC(C(=O)Nc1cccc(F)c1)(N1CC3(CC3)CNC1=O)C2)C(C1CC1)C1CC1 (stereo partly drawn) [Example 216, N-((2S)-1,1-dicyclopropyl-3-((2-((3-fluorophenyl)carbamoyl)-2-(6-oxo-5,7-diazaspiro[2.5]octan-5-yl)-2,3-dihydro-1H-inden-5-yl)amino)-3-oxopropan-2-yl)-4-methyl-1,2,5-oxadiazole-3-carboxamide] | 7.23 | 7.63 | –
Cn1nccc1C(=O)NC(C(=O)Nc1ccc2c(c1)CC(N1C[C@@H](C(F)(F)F)NC1=O)C2)C1CCc2cc(Cl)ccc2C1 (stereo partly drawn) [Example 217, N-(1-(6-chloro-1,2,3,4-tetrahydronaphthalen-2-yl)-2-oxo-2-((2-((S)-2-oxo-4-(trifluoromethyl)imidazolidin-1-yl)-2,3-dihydro-1H-inden-5-yl)amino)ethyl)-1-methyl-1H-pyrazole-5-carboxamide] | 6.40 | 7.20 | –
Cc1nocc1C(=O)N[C@H](C(=O)Nc1ccc2c(c1)CC(N1C[C@@H](C(F)(F)F)NC1=O)C2)C(C1CC1)C1CC1 (stereo partly drawn) [Example 218, N-((2S)-1,1-dicyclopropyl-3-oxo-3-((2-((S)-2-oxo-4-(trifluoromethyl)imidazolidin-1-yl)-2,3-dihydro-1H-inden-5-yl)amino)propan-2-yl)-3-methylisoxazole-4-carboxamide] | 6.41 | 6.85 | –
Cc1ccc(F)cc1NC(=O)C1(N2CC3(CC3)CNC2=O)Cc2ccc(NC(=O)[C@@H](NC(=O)c3nonc3C)C3CCC(F)(F)CC3)cc2C1 (stereo partly drawn) [Example 219, N-((1S)-1-(4,4-difluorocyclohexyl)-2-((2-((5-fluoro-2-methylphenyl)carbamoyl)-2-(6-oxo-5,7-diazaspiro[2.5]octan-5-yl)-2,3-dihydro-1H-inden-5-yl)amino)-2-oxoethyl)-4-methyl-1,2,5-oxadiazole-3-carboxamide] | 6.53 | 6.97 | –
Cc1nonc1C(=O)N[C@H](C(=O)Nc1ccc2c(c1)CC(C(=O)Nc1cccc(Cl)c1)(N1CC3(CC3)CNC1=O)C2)C1CCC(F)(F)CC1 (stereo partly drawn) [Example 220, N-((1S)-2-((2-((3-chlorophenyl)carbamoyl)-2-(6-oxo-5,7-diazaspiro[2.5]octan-5-yl)-2,3-dihydro-1H-inden-5-yl)amino)-1-(4,4-difluorocyclohexyl)-2-oxoethyl)-4-methyl-1,2,5-oxadiazole-3-carboxamide] | 7.09 | 6.77 | –
Cc1ccc(NC(=O)C2(N3CC4(CC4)CNC3=O)Cc3ccc(NC(=O)[C@@H](NC(=O)c4nonc4C)C4CCC(F)(F)CC4)cc3C2)cc1 (stereo partly drawn) [Example 221, N-((1S)-1-(4,4-difluorocyclohexyl)-2-oxo-2-((2-(6-oxo-5,7-diazaspiro[2.5]octan-5-yl)-2-(p-tolylcarbamoyl)-2,3-dihydro-1H-inden-5-yl)amino)ethyl)-4-methyl-1,2,5-oxadiazole-3-carboxamide] | 6.95 | 7.32 | –
Cc1nonc1C(=O)N[C@H](C(=O)Nc1ccc2c(c1)CC(c1cn3ccccc3n1)(N1CC3(CC3)CNC1=O)C2)C(C1CC1)C1CC1 (stereo partly drawn) [Example 222, N-((2S)-1,1-dicyclopropyl-3-((2-(imidazo[1,2-a]pyridin-2-yl)-2-(6-oxo-5,7-diazaspiro[2.5]octan-5-yl)-2,3-dihydro-1H-inden-5-yl)amino)-3-oxopropan-2-yl)-4-methyl-1,2,5-oxadiazole-3-carboxamide] | 7.18 | 7.46 | –
Cc1nonc1C(=O)N[C@H](C(=O)Nc1ccc2c(c1)CC(c1cn3ccccc3n1)(N1CC3(CC3)CNC1=O)C2)C1CCC(F)(F)CC1 (stereo partly drawn) [Example 223, N-((1S)-1-(4,4-difluorocyclohexyl)-2-((2-(imidazo[1,2-a]pyridin-2-yl)-2-(6-oxo-5,7-diazaspiro[2.5]octan-5-yl)-2,3-dihydro-1H-inden-5-yl)amino)-2-oxoethyl)-4-methyl-1,2,5-oxadiazole-3-carboxamide] | 6.22 | 6.93 | –
